According to patent publication US11819535B2, “Composition and methods for regulating extracellular matrix accumulation” (UNIVERSITY HEALTH NETWORK, priority 2018, dated 2023):

Assays:
[1] = test system: dermal primary human fibroblasts (dPHFs); assay: Western blot of fibronectin, collagen-1 and PAI-1 in dermal primary human fibroblasts; format: cell-based; details: for extracellular levels of fibronectin, collagen-1, and PAI-1 (ECM proteins): Etomoxir 10 uM, BAY-876 40 nM, FIG. 2A; for effect on intracellular levels of fibronectin and collagen-1 / effect on downregulation of extracellular fibronectin and collagen-1 by caffeic acid: caffeic acid (40 uM) treated dPHFs; for effect on downregulation of extracellular fibronectin and collagen-1 by caffeic acid: in a dose dependent manner
[2] = test system: SMAD3; assay: SMAD3 luciferase reporter in dPHFs; format: cell-based, human; details: for SMAD3 dependent transcription: in response to TGF-B1, caffeic acid 40 uM, WZB-117 10 uM, 2-DG 2 mM
Experimental: SMAD3 luciferase reporter was constructed as previously described^26. Oligos containing SMAD3 binding sites were designed with BamH1 and Sal1 digestion sites. Forward: 5′-[…]-3′, reverse: 5′-[…]-3′. SMAD oligoes were inserted into a p-delta-51 LUC II reporter. dPHFs were electroporated with construct using an Amaxa mouse neural stem cell nucleofactor kit (Lonza). 24 hours after electroporation, cells were treated as above (cell culture) for 24 hours and lysed to assess for luciferase and renilla activity. Relative luciferase activity was defined as the level of luciferase bioluminescence divided by renilla bioluminescence for each sample.

[3] = test system: radiation-induced skin fibrosis; assay: Murine radiation-induced skin fibrosis model; format: in vivo, mice
From the text: All animal procedures were approved by Animal Care Committee at the University Health Network under AUP 3422. A murine skin fibrosis model was created by radiating the hindlimb of C3H/HeJ mice (Jackson Laboratory) or B6.12951-Cd36^tm1Mfe/J mice (Jackson Laboratory) using an XRAD 225Cx (Precision X-Ray) and a 2.5 cm collimator. Prior to irradiation, fluoroscopic imaging was used to confirm and standardize the irradiation site. 40 Gy for C3H mice or 30 Gy for B6 mice was divided equally on the dorsal and ventral side of the leg. Animals were randomized into groups for treatment by a researcher blinded to treatment assignment. For CD36^high cell treatment, 1×10^6 cells in 100 ul PBS were injected into the hindlimb subdermally at 3 sites weekly for 3 weeks starting at 4 weeks post-irradiation. For caffeic acid phenethyl ester treatment, 10 mg/kg was given by intraperitoneal injection by a researcher blinded to treatment. Caffeic acid phenethyl ester or vehicle control was given 3× per week for 10 weeks starting at 1 week post-irradiation. Leg contracture measurement was performed, as previously published^21, after first sedating mice with inhalation anesthesia and ensuring deep sedation through no pain reflex and no muscle tone. Then mice hips were fixed on a custom apparatus. 0.1N equivalent weight was then used to extend the fibrotic and contralateral normal leg and leg extension was measured using a standardized ruler by two assessors blinded to treatment groups. Percentage leg contracture was calculated as 1−leg extension of fibrotic leg/leg extension of contralateral normal leg. Leg contracture was measured biweekly and averaged for the week.
Formalin-fixed, paraffin-embedded 8 um sections treated with Masson's Trichrome Stain were whole slide scanned using Aperio ScanScope XT. Analysis was performed by a researched blinded to treatment. Using ImageJ, whole slide scanned images were loaded using the […] plugin, and then stacked to RGB. Colour deconvolution was used to separate the full-colour images into their red, green and blue components. A threshold of pixel intensity was optimized and set and standardized for all images. A ratio of blue (trichrome) to red (nuclear) pixel density was derived for each image, representing collagen to cell ratio.

[4] = test system: dermal primary human fibroblasts (dPHFs); assay: FAO and glycolysis functional assessment (Seahorse) in dPHFs; format: cell-based; details: TGF-B1 stimulated dPHFs
Experimental: FAO and Glycolysis Functional Assessment for dPHFs • Seahorse experiments were performed on an XFe96 analyzer (Aligent) based on manufacturer's instructions. dPHFs were prepared as per above (cell culture) on an XF96 culture plate. For glycolysis profiling, final concentration of glucose (1 mM or 10 mM), oligomycin (1 uM), and 2-DG (100 mM) was utilized. For FAO, palmitate sodium (Sigma) and BSA-fatty acid free (Sigma) were used to make palmitate-BSA (0.17 mM) as per manufacturer's instructions. Etomoxir (Tocris) 40 uM final concentration was used.

[5] = test system: dermal primary human fibroblasts (dPHFs); assay: qRT-PCR gene expression profiling in dPHFs; format: cell-based; details: caffeic acid 40 uM
Experimental: dPHFs obtained from ATCC (PCS-201-012) were cultured in DMEM with 5% FBS. Mesenchymal cells were isolated primarily from C3H or B6 mice. Animals were euthanized and intraperitoneal fat or skin was dissected and minced. Collagenase and hyaluronidase (Stem cell technologies) digestion was performed in a rotating oven at 37 C for 1 hour, passed through a 70 uM filter, and then plated in DMEM+10% FSB to expand the mesenchymal population. Cells were starved for 12 hours in MEM media prior to treatment with TGF-B1 (Sigma), caffeic acid (Sigma), dichloroacetic acid (Sigma), PDGF-BB (R&D Systems), and/or etomoxir (Tocris). All protein and mRNA profiling was performed at 24 hours post-treatment except for PDGF-BB, which was performed at 48 hours post-treatment.
For human and murine skin samples, skin samples were macrodissected and snap frozen in liquid nitrogen and stored at −80° C. For in vitro experiments, cells were trypsinized and either snap frozen in liquid nitrogen or immediately underwent RNA extraction. All RNA was extracted using the RNeasy Mini Kit (Qiagen) according to manufacturer instructions. RNA quality was measured and quantified using either the NanoDrop 2000c Spectrophotometer (Thermo Scientific); we used either A260/280 for cell samples, or RIN for human and murine samples using a 2100 bioanalyzer (Aligent). cDNA was synthesized from normalized amounts of RNA using random hexamer primers and SuperScript III (Invitrogen) on a PTC-200 Peltier Thermal Cycler. Primers were obtained from peer-reviewed publications whenever possible. See Table S1 for references and amplicon size. Primers were validated through BLASTing to ensure specificity, size confirmation by gel electrophoresis at first time use, and by melting curve assessment for all reactions. PCR efficiency was measured using a standard curve through the dilution of a representative sample to determine the linear range of cDNA amounts for qRT-PCR reactions. qRT-PCR reactions were performed on 384-well plates (Applied Biosystems) using SYBR Green PCR Master Mix (Applied Biosystems). The analysis was run on the 7900HT Fast Real-Time PCR System (Applied Biosystems). Reaction conditions for cDNA synthesis and qRT-PCR are found in supplementary data Table S2 and S3 respectively. A no template control was used to monitor contamination and false positive results from primer-dimers. Results of no template controls were confirmed to have higher CT-values and distinct melting curves compared to template reactions. 18S ribosomal RNA was used as an internal control. A 2^−ΔΔCT method was used for relative quantification and for graphical representation in figures. Statistical analysis was performed on biological replicates using Relative Expression Software Tool (REST)^24 set to default parameters.

[6] = test system: CD36; assay: CD36 gene (qRT-PCR) and surface (flow cytometry) expression in dPHFs; format: cell-based, human
Experimental: For human and murine skin samples, skin samples were macrodissected and snap frozen in liquid nitrogen and stored at −80° C. For in vitro experiments, cells were trypsinized and either snap frozen in liquid nitrogen or immediately underwent RNA extraction. All RNA was extracted using the RNeasy Mini Kit (Qiagen) according to manufacturer instructions. RNA quality was measured and quantified using either the NanoDrop 2000c Spectrophotometer (Thermo Scientific); we used either A260/280 for cell samples, or RIN for human and murine samples using a 2100 bioanalyzer (Aligent). cDNA was synthesized from normalized amounts of RNA using random hexamer primers and SuperScript III (Invitrogen) on a PTC-200 Peltier Thermal Cycler. Primers were obtained from peer-reviewed publications whenever possible. See Table S1 for references and amplicon size. […] PCR efficiency was measured using a standard curve through the dilution of a representative sample to determine the linear range of cDNA amounts for qRT-PCR reactions. qRT-PCR reactions were performed on 384-well plates (Applied Biosystems) using SYBR Green PCR Master Mix (Applied Biosystems). […] A 2^−ΔΔCT method was used for relative quantification and for graphical representation in figures. […]

[7] = test system: dermal primary human fibroblasts (dPHFs); assay: Lysosome quantification (LysoTracker) and TFEB expression in dPHFs; format: cell-based; details: TGF-B1 3 ng/ml; caffeic acid 40 uM
Experimental: dPHFs were treated as per above (cell culture) and exposed to LysoTracker (ThermoFisher) as per manufacturer's instructions on a 4 chamber cover glass system (ThermoFisher). Images were obtained using an Olympus Fluoview laser-scanning confocal microscope. Fluorescence intensity was quantitated per cell using the Object Identification module and Measurement function of Volocity software. Cell area was measured using ImageJ software.

[8] = test system: dermal primary human fibroblasts (dPHFs); assay: DQ-collagen-1 / lysotracker co-localization in dPHFs; format: cell-based; details: TGF-B1 3 ng/ml; caffeic acid 40 uM
[9] = mice with skin fibrosis, CAPE IP 10 mg/Kg 3 times per week for 10 weeks
[10] = TGF-B1 treated dPHFs, caffeic acid 40 uM

## O=CC[C@@H](O)[C@H](O)[C@H](O)CO [2-DG, 2-deoxy-d-glucose]
[1]; dPHFs, WZB-117 10 uM
  extracellular levels of fibronectin, collagen-1, and PAI-1 (ECM proteins): downregulation
[2]
  SMAD3 dependent transcription: inhibited

## O=C(/C=C/c1ccc(O)c(O)c1)OCCc1ccccc1 [CAPE, caffeic acid phenethyl ester]
[1]; TGF-B1 (3 ng/ml) treated dPHFs, CAPE 5 uM
  fibronectin, collagen-1 and PAI-1: downregulate
[3]; CAPE IP 10 mg/Kg 3 times per week for 10 weeks
  functional and histological evidence of fibrosis severity (leg contracture, trichrome): significantly reduced
[3]; [9]
  PPAR signaling in skin: upregulated
  expression of CD36 in skin: upregulated
[3]; mice with skin fibrosis, CAPE treatment
  CD36 expression in vimentin+ (mesenchymal) cells, co-immunofluorescence: increase

## CCN(CC)CCCC(C)Nc1ccnc2cc(Cl)ccc12 (stereo not shown) [chloroquine]
[1]
  effect on intracellular levels of fibronectin and collagen-1: no effect
  effect on downregulation of extracellular fibronectin and collagen-1 by caffeic acid: inhibit

## Cl.N [NH4Cl]
[1]
  effect on intracellular levels of fibronectin and collagen-1: no effect
  effect on downregulation of extracellular fibronectin and collagen-1 by caffeic acid: inhibit

## O=C(O)/C=C/c1ccc(O)c(O)c1 [caffeic acid]
[1]; [10]
  extracellular fibronectin and collagen-1: markedly downregulated
  intracellular and extracellular PAI-1: reduced
[2]
  SMAD3 dependent transcription: reduced
[4]
  functional shift of metabolism (glycolysis vs FAO): functionally shifted metabolism from glycolysis to FAO
[5]; TGF-B1 (3 ng/ml) treated dPHFs
  PPAR genes expression: upregulated
  glycolysis genes expression: downregulated
[5]; TGF-B1 stimulated fibroblasts
  FN1 and COL1A1 expression: moderately decreased
  expression of PAI: significantly downregulated
[6]; TGF-B1 stimulated dPHFs, caffeic acid 40 uM
  CD36 gene and surface expression: restored
[7]
  expression of TFEB and lysosomes in dPHFs: increasing
[8]
  co-localization between DQ-collagen-1 and lysosomes: significant increase

## O=C(Oc1cccc(F)c1OC(=O)c1cccc(O)c1)c1cccc(O)c1 [WZB-117]
[1]; TGF-B1 3 ng/ml, WZB-117 10 uM, even in dPHFs lacking PPARG and ACOX1
  extracellular fibronectin, collagen-1 and PAI-1 protein levels: reduced
[1]; dPHFs, WZB-117 10 uM
  extracellular levels of fibronectin, collagen-1, and PAI-1 (ECM proteins): downregulation
[2]
  SMAD3 dependent transcription: inhibited

## CCOC(=O)[C@@]1(CCCCCCOc2ccc(Cl)cc2)CO1 [etomoxir]
[1]; TGF-B1 + caffeic acid 40 uM + etomoxir, dPHFs
  effect on the downregulation of pro-fibrotic proteins by caffeic acid: inhibited
[1]; dPHFs, WZB-117 10 uM
  extracellular levels of fibronectin, collagen-1, and PAI-1 (ECM proteins): elevation
[2]; TGF-B1 + WZB-117 or 2-DG + etomoxir 10 uM
  rescue of WZB-117 and 2-DG inhibition of SMAD3 dependent transcription: not rescued
[2]; TGF-B1 + caffeic acid 40 uM + etomoxir 10 uM
  effect on caffeic acid's reduction of SMAD3 dependent transcription: inhibited
[6]; dPHFs, Etomoxir 10 uM for 24 hours
  CD36 surface expression: downregulated

## Cc1c(NC(=O)c2cc(C(N)=O)nc3cc(F)ccc23)c(C(F)(F)F)nn1Cc1ccc(C#N)cc1 [BAY-876]
[1]; dPHFs, WZB-117 10 uM
  extracellular levels of fibronectin, collagen-1, and PAI-1 (ECM proteins): downregulation
